Test results from patent publication US20230227477A1, “COMPOUNDS FOR SENSING REACTIVE OXYGEN SPECIES AND METHODS FOR USING THE SAME” (WAKE FOREST UNIVERSITY HEALTH SCIENCES, priority 2020, published 2023).

Tests used:
HeLa cells [1] = test: Protective effects on HeLa cells under H2O2-induced oxidative stress (CCK-8 viability); assay type: cell-based, human
Procedure: Next, the protective effects of compound RAH393 on cultured HeLa cells which were under oxidative stress were examined. A population of cells (>6×10^6 cells/mL as determined with a hemocytometer) was diluted with FBS-free DMEM:F12-K, 1:1, 1% penicillin-streptomycin, and 1% L-glutamine to give a final concentration of 50,000 cells/mL. To a 96-well plate was added 100 μL of cell media solution resulting in a total of 5 k cells per well. Plates were then incubated at 37° C. in an atmosphere of 5% CO2 and 95% humidified air for 24 h. Confluent cells were then pre-incubated in FBS-free media with compound RAH393 (or compound 5) (200 μM) for 1 h followed by treatment with H2O2 (200 μM) for an additional 1 h incubation period. Control wells with H2O2 alone (200 μM) were also evaluated on the same plate. After a total incubation period of 2 h, cell contents were then replaced with 100 μL of fresh FBS-free media with 10% CCK-8. Cells were then incubated for 3 h at 37° C. and cell viability was assessed by measuring the resulting absorbance at 450 nm using a 96-well plate reader (BioTek SYNERGY-HTX multi-mode reader, Winooski, Vt.).

[2] = Rate of coumarin release from compound 1a with H2O2 (fluorescence, plate reader); assay type: physicochemical; conditions: 20 μM compound 1a, 1000 μM H2O2, PBS pH 7.4, 37° C.
Procedure: Referring to FIG. 2A, initially appending a coumarin ester to the H2O2-responsive scaffold of compound 1a, it was hypothesized that the release of payload, in response to H2O2, could be monitored via fluorescence spectroscopy while recording the resulting increase in fluorescence intensity upon excitation at 7-hydroxycoumarin's λmax. Therefore, to initially assess the reactivity of the scaffold towards peroxides, compound 1a (20 μM) and H2O2 (1000 μM) was incubated in PBS buffer (pH 7.4) at 37° C. Specifically, immediately prior to use, a 5 mM stock solution of hydrogen peroxide was prepared in freshly degassed 1× PBS buffer (pH 7.4) using reagent grade H2O2 (30% solution). A 200 μM stock solution of probe compound 1a was prepared in 200-proof ethanol. The rate of coumarin release was measured using concentrations of 20 μM compound 1a and 1000 μM H2O2 by adding 30 μL of the probe stock solution, 60 μL of hydrogen peroxide stock solution and 210 μL of PBS buffer (pH 7.4) to each well of a 96 well plate. The plate was inserted into a 96-well plate reader (BioTek SYNERGY-HTX hybrid multi-mode reader, Winooski, Vt.), heated to 37° C., and agitated to ensure homogeneity. The plate was read continuously using a 360/40 nm fluorescence filter and values were recorded as the mean+/−STDEV from three experiments.
To further establish the proposed mechanistic pathway, lactone compound 3 (see FIG. 2A) was isolated and characterized as a definitive byproduct of this transformation. […] Compound 3 was formed as described below.

[3] = Turn-on fluorescence response of compounds 1a, 1b, 1c in PBS buffer alone and with H2O2; assay type: physicochemical; conditions: for turn-on fluorescence response towards H2O2 (in words) / fluorescence (ex: 330 nm, em: 452 nm), in the presence of 1 mM H2O2 / fluorescence (ex: 330 nm, em: 452 nm), PBS Buffer alone: 20 μM probe; for turn-on fluorescence response towards H2O2 (in words): 1 mM H2O2 vs PBS alone, 3 h; for fluorescence (ex: 330 nm, em: 452 nm), in the presence of 1 mM H2O2 / fluorescence (ex: 330 nm, em: 452 nm), PBS Buffer alone: PBS pH 7.4, 37° C., 180 min; for fluorescence (ex: 330 nm, em: 452 nm), PBS Buffer alone: no H2O2
Procedure: Stock solutions of each probe (compounds 1a, 1b, 1c) at 222.2 μM were prepared in 200-proof ethanol. In addition, a 100 mM hydrogen peroxide stock solution was prepared in freshly degassed 1× PBS buffer (pH 7.4) immediately prior to use. Each reaction vial was prepared using 21.6 mL of PBS buffer, 2160 μL of compound 1a (or compound 1b or 1c) stock solution, and 240 μL of 100 mM hydrogen peroxide stock solution to give final concentrations of 20 μM of compound 1a (or compound 1b or 1c) and 1 mM of hydrogen peroxide. A control sample was prepared using 2160 μL of compound 1a (or 1b or 1c) stock solution in ethanol and diluted with 21.84 mL of freshly degassed 1× PBS buffer to give a final concentration of 20 μM of compound 1a (or 1b or 1c). The reaction and control vials were heated to 37° C. and agitated with a stir bar. At 180 min, 4 mL aliquots were transferred from reaction and control vials to individual quartz cuvettes. Fluorescence measurements (ex: 330 nm, em: 452 nm) were recorded as the mean+/−STDEV from three experiments. Referring to FIG. 3, the results for each of compounds 1a, 1b, and 1c was as follows—(1a): (1) PBS Buffer alone: 3.85+/−0.58; (2) In the presence of 1 mM H2O2: 97.01+/−12.97. (1b): (1) PBS Buffer alone: 0.55+/−0.27; (2) In the presence of 1 mM H2O2: 8.14+/−3.13. (1c): (1) PBS Buffer alone: 102.35+/−0.73; (2) In the presence of 1 mM H2O2: 129.54+/−0.55.

HeLa cells [4] = test: Cytotoxicity in HeLa cells (phosphatase assay); assay type: cell-based, human; conditions: various concentrations, 5 h incubation
Procedure: First, compound RAH393 and lactone compound 3 were tested for cytotoxicity in HeLa cells. A population of cells (>6×10^6 cells/mL as determined with a hemocytometer) was diluted with FBS-free DMEM:F12-K, 1:1, 1% penicillin-streptomycin, and 1% L-glutamine to give a final concentration of 50,000 cells/mL. To a 96-well plate was added 100 μL of cell media solution resulting in a total of 5 k cells per well. Plates were then incubated at 37° C. in an atmosphere of 5% CO2 and 95% humidified air for 24 h. Fresh culture media (100 μL) was then added to each well of cells resulting in 200 μL of media per well followed by the addition of compound RAH393 or compound 3 at various concentrations (20 mM stock in biological-grade DMSO, resulting in no more than 1% DMSO per well). After incubating for 5 h, a phosphatase assay was used to establish cell viability as follows: Media was removed from each well and replaced with 100 μL of phosphatase solution (100 mg of phosphatase substrate, in 30 mL of 0.1 M NaOAc, pH 5.5, 0.1% Triton X-100 buffer). Following an incubation period of 30 min, 50 μL of 0.10 M NaOH was added to each well and viability was assessed spectrophotometrically at 405 nm using a 96-well plate reader (BioTek SYNERGY-HTX multi-mode reader, Winooski, Vt.). Assays were performed in triplicate and presented as the mean+/−STDEV.

[5] = Persulfide release from compounds 4a and 4b with H2O2 monitored by fluorescence; assay type: physicochemical; conditions: 20 μM compound; for change of relative fluorescence intensity over time with H2O2 (in words): 200 μM H2O2, PBS pH 7.4, 37° C., 3 hours
Procedure: Referring to FIGS. 6A and 6B, compounds 4a and 4b (20 μM) were exposed to H2O2 (200 μM) in PBS buffer (pH 7.4) at 37° C. and the resulting fluorescence intensity was monitored over a period of 3 hours. Immediately prior to use, a 200 μM stock solutions of compound 4a and compound 4b were prepared in cell-grade dimethylsulfoxide (DMSO), and a 200 μM stock of cetyltrimethylammonium bromide (CTAB) was prepared in PBS buffer (pH 7.4). Next, a 2 mM hydrogen peroxide stock solution was prepared by diluting 30% hydrogen peroxide in freshly degassed PBS Buffer (pH 7.4). 30 μL of compound 4a (or compound 4b) was then added to a 96 well plate and diluted with 90 μL of PBS buffer and 150 μL of the CTAB stock solution. The assay was then initiated by the addition of 30 μL, of the 2 mM hydrogen peroxide stock solution rendering a final concentration of 20 μM for compound 4a (or compound 4b), 200 μM of hydrogen peroxide, and 100 μM of CTAB. The control reactions without peroxide were conducted by adding 30 μL of the 200 μM stock of compound 4a to a 96 well plate and diluting with 120 μL of PBS buffer and 150 μL of 200 μM CTAB to make a final concentration of 20 μM of compound 4a and 100 μM of CTAB. The plate was inserted into a 96-well plate reader (BioTek SYNERGY-HTX multi-mode reader, Winooski, Vt.) heated to 37° C., and agitated to ensure homogeneity. The plate was read continuously using a 360/40 nm fluorescence filter and values were recorded as the mean+/−STDEV from three experiments.

[6] = DNFB trapping of released persulfide, LCMS (validation as ROS-activated persulfide donor); assay type: physicochemical; conditions: 200 μM compound, 1 mM DNFB; for formation of trapped disulfide compound 7 (persulfide release), LCMS: 1 mM H2O2, ammonium bicarbonate buffer, room temperature
Procedure: Initially, 5 mM stock solutions of compound RAH393, compound 5, and 2,4-dinitrofluorobenzene (DNFB) were prepared in 200-proof ethanol. In addition, a 100 mM stock solution of hydrogen peroxide in ammonium bicarbonate buffer (1 mM, pH 7.0) was prepared immediately prior to use. To a conical vial containing 1500 μL of 1M ammonium bicarbonate was then added 80 μL of the 5 mM stock of compound RAH393 (or control compound 5), 400 μL of the 5 mM DNFB stock, and 20 μL of 100 mM hydrogen peroxide giving a final concentrations of 200 μM compound RAH393 (or compound 5), 1 mM DNFB, and 1 mM H2O2. At the designated timepoints, a 100 μL aliquot of the room-temperature reaction was diluted with 900 μL of HPLC-grade methanol with 0.1% formic acid for analysis. 75 μL of the resultant solution was then injected onto C18 reverse phase column (Agilent Technologies, SB-C18 Analytical HPLC Col. 4.6×150) and eluted with HPLC-grade methanol (0.1% formic acid) and HPLC-grade water (0.1% formic acid) at a flow rate of 200 μL/min using the following gradient: 0-2 min, 90:10 water:methanol; 2-8 min, 40:60 water:methanol; 8-30 min, 10:90 water:methanol; 30-40 min, 5:95 water:methanol. Retention times of lactone compound 3 (25.0 min), compound RAH393 (35.6 min), compound 5 (27.7 min), and DNFB (16.5 min) were independently validated. When this assay was run using compound RAH393, in addition to compound 7 (21.7 min), the tri- and tetrasulfides of N-acetylcysteamine were also present (14.1 min and 16.2 min, respectively), further confirming persulfide release from compound RAH393.

OO [H2O2, hydrogen peroxide, reference compound]
cell viability (HeLa cells [1]; 200 μM H2O2 alone, 1 hour): 33%

CC(C)(Cc1ccccc1B1OC(C)(C)C(C)(C)O1)C(=O)Oc1ccc2ccc(=O)oc2c1 [compound 1a]
time at which fluorescence intensity reached a maximum (complete release of coumarin reporter) [2]: roughly 1 h
kobs ([2]; pseudo first-order): 0.024 min⁻¹
half-life at 20 μM ([2]; PBS buffer with 1000 μM H2O2, pseudo first-order, read-out: half-life (t1/2) of reaction with H2O2): 29.3 min
turn-on fluorescence response towards H2O2 (in words) [3]: selective turn-on fluorescence response towards H2O2
fluorescence (ex: 330 nm, em: 452 nm), in the presence of 1 mM H2O2 [3]: 97.01+/−12.97
fluorescence (ex: 330 nm, em: 452 nm), PBS Buffer alone [3]: 3.85+/−0.58

CC(C)(Cc1ccccc1)C(=O)Oc1ccc2ccc(=O)oc2c1 [compound 1b]
turn-on fluorescence response towards H2O2 (in words) [3]: no turn-on response
fluorescence (ex: 330 nm, em: 452 nm), in the presence of 1 mM H2O2 [3]: 8.14+/−3.13
fluorescence (ex: 330 nm, em: 452 nm), PBS Buffer alone [3]: 0.55+/−0.27

CC1(C)OB(c2ccccc2CCC(=O)Oc2ccc3ccc(=O)oc3c2)OC1(C)C [compound 1c]
fluorescence (ex: 330 nm, em: 452 nm), in the presence of 1 mM H2O2 [3]: 129.54+/−0.55
fluorescence (ex: 330 nm, em: 452 nm), PBS Buffer alone [3]: 102.35+/−0.73
susceptibility to hydrolysis (in words) ([3]; PBS buffer alone, pH 7.4, 37° C.): highly susceptible to hydrolysis

CC1(C)Cc2ccccc2OC1=O [compound 3]
cytotoxicity toward HeLa cells (in words) (HeLa cells [4]): neither compound RAH393 nor lactone compound 3 were toxic

CC(C)(Cc1ccccc1B1OC(C)(C)C(C)(C)O1)C(=O)SSc1ccccc1C(=O)Oc1ccc2ccc(=O)oc2c1 [compound 4a]
kobs (pseudo first-order rate constant) ([5]; 200 μM H2O2, 100 μM CTAB, PBS pH 7.4, 37° C.): 0.012 min⁻¹
change of relative fluorescence intensity over time with H2O2 (in words) [5]: significantly increase over time
fluorescence profile in PBS buffer alone (in words) ([5]; no H2O2, 100 μM CTAB, 37° C.): nearly identical fluorescence profile to that of compound 4b
half-life at 20 μM ([5]; PBS buffer with 200 μM H2O2 and 100 μM CTAB, 200 μM H2O2, 100 μM CTAB, PBS pH 7.4, 37° C., pseudo first-order, read-out: half-life of reaction with H2O2 (persulfide release)): 60.5 min

CC(C)(Cc1ccccc1)C(=O)SSc1ccccc1C(=O)Oc1ccc2ccc(=O)oc2c1 [compound 4b]
change of relative fluorescence intensity over time with H2O2 (in words) [5]: trivial

CC(=O)NCCSSC(=O)C(C)(C)Cc1ccccc1 [compound 5]
protection against H2O2-induced oxidative stress (in words) (HeLa cells [1]; pre-treatment 200 μM compound 1 h, then 200 μM H2O2 1 h): no protection
formation of trapped disulfide compound 7 (persulfide release), LCMS [6]: unsuccessful in yielding compound 7

CC(=O)NCCSSC(=O)C(C)(C)Cc1ccccc1B1OC(C)(C)C(C)(C)O1 [compound RAH393]
cytotoxicity toward HeLa cells (in words) (HeLa cells [4]): neither compound RAH393 nor lactone compound 3 were toxic
increase in cell viability (HeLa cells [1]; pre-treatment 200 μM compound 1 h, then 200 μM H2O2 1 h, vs H2O2 alone): 100%
formation of trapped disulfide compound 7 (persulfide release), LCMS [6]: formation of disulfide compound 7 was confirmed
production of lactone compound 3, LCMS (in words) ([6]; 1 mM H2O2, over a period of 25 min): linear increase in the production of lactone compound 3
